Assay results as given in publication PMC11342346 (ACS Bio & Med Chem Au, 2024).
*1 amine or outer side, *2 acyl side, *3 side chain or, on linkers, in order; H or OH if unused. Where a SMILES comes first, the peptide text is derived from it. Bridges are numbered along the chain shown (N, C = ends). Roman numbers before positions name the chains, in order. Where no end group is shown, it is not given here. The star is where a group is joined. CO(CH2CH2O)5CH2CH2CO = O=C(CCOCCOCCOCCOCCOCCC(=O)[*:2])[*:1]; PEG12 = NCCOCCOCCOCCOCCOCCOCCOCCOCCOCCOCCOCCOCCC(=O)O; Biotin = O=C1N[C@H]2[C@H](CS[C@H]2CCCCC(=O)*)N1; PEG2 = NCCOCCOCCC(=O)O

Key:
[1] = system: Ring Finger Protein 43 (RNF43); type: binding; details: SPR, DCP immobilized on streptavidin sensor, RNF43 as analyte
[2] = system: Wnt signaling in HEK293 TOPbrite (TB) luciferase reporter cells; type: cell-based; details: three independent runs
biotin-PEG12-MK1-3.6.10S = assay: SPR
biotin-PEG2-MK1-3.6.10S = assay: SPR

Chain of human ZNRF3 (free, in solution) (Q9ULT6 56-936): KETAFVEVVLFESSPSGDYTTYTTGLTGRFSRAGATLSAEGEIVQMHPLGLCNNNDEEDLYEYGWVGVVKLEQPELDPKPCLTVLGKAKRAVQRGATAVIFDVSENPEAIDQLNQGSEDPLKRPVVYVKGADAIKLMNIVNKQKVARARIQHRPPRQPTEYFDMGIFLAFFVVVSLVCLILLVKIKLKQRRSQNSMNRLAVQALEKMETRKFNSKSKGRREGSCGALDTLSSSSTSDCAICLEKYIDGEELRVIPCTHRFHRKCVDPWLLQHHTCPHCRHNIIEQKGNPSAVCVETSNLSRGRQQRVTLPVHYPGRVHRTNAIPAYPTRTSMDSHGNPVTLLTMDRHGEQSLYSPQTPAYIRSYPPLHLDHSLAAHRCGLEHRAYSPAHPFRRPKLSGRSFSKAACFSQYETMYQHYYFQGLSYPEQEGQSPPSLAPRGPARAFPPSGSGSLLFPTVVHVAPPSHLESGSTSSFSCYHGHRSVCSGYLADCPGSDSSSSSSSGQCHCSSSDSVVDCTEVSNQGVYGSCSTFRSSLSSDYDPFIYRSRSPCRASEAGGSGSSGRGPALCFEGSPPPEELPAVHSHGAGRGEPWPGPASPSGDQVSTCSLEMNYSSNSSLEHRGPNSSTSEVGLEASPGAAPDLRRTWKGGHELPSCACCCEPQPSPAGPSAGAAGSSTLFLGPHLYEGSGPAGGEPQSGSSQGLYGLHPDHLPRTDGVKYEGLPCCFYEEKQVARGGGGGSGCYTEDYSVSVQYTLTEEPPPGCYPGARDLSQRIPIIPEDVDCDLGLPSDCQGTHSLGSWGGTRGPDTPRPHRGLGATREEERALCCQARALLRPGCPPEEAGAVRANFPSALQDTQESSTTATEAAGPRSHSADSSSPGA

In the case of CC[C@H](C)[C@@H]1NC(=O)[C@@H]2CCCN2C(=O)[C@H](CCCNC(=N)N)NC(=O)[C@H](CCC(=O)O)NC(=O)[C@@H]2CSSC[C@@H]3NC(=O)[C@H](CCCCN)NC(=O)[C@H](CCCCN)NC(=O)[C@H](CC(N)=O)NC(=O)[C@H](CC(C)C)NC(=O)[C@H](CCCNC(=N)N)NC(=O)[C@H](CC(N)=O)NC(=O)[C@@H](NC(=O)[C@H](CO)NC(=O)CCOCCOCCNC(=O)CCCC[C@@H]4SC[C@@H]5NC(=O)N[C@@H]54)CSSC[C@H](NC(=O)[C@H](CSSC[C@@H](C(=O)N[C@@H](CCCNC(=N)N)C(=O)N4CCC[C@H]4C(=O)N[C@@H](CC(=O)O)C(=O)N[C@H](C(=O)NCC(=O)N4CCC[C@H]4C(=O)O)C(C)C)NC(=O)[C@H](Cc4ccc(O)cc4)NC(=O)[C@H](CCSC)NC(=O)[C@H](Cc4ccccc4)NC(=O)[C@H](CCCCN)NC(=O)[C@H](Cc4c[nH]c5ccccc45)NC(=O)CNC1=O)NC(=O)[C@H](CC(=O)O)NC(=O)[C@H](C)NC(=O)[C@H](CC(=O)O)NC(=O)[C@H](CO)NC(=O)[C@H](CC(N)=O)NC3=O)C(=O)N[C@@H](C)C(=O)N[C@@H](CC(N)=O)C(=O)N[C@@H](CCCCN)C(=O)N[C@@H](CCC(=O)O)C(=O)N[C@@H](CCCCN)C(=O)N2 [biotin-PEG2-MK1-3.6.10S] ({Biotin-PEG2}-SCNRLNKKCNSDADCCANKEKCERPIGWKFMYCRPDVGP-OH; disulfide 2-16, 9-22, 15-33; C-terminus assumed), the “binding to RNF43” value [1] is reported as “did not bind”.

In the case of CC[C@H](C)[C@@H]1NC(=O)[C@@H]2CCCN2C(=O)[C@H](CCCNC(=N)N)NC(=O)[C@H](CCC(=O)O)NC(=O)[C@@H]2CSSC[C@@H]3NC(=O)[C@H](CCCCN)NC(=O)[C@H](CCCCN)NC(=O)[C@H](CC(N)=O)NC(=O)[C@H](CC(C)C)NC(=O)[C@H](CCCNC(=N)N)NC(=O)[C@H](CC(N)=O)NC(=O)[C@@H](NC(=O)[C@H](CO)NC(=O)CCOCCOCCOCCOCCOCCOCCOCCOCCOCCOCCOCCOCCNC(=O)CCCC[C@@H]4SC[C@@H]5NC(=O)N[C@@H]54)CSSC[C@H](NC(=O)[C@H](CSSC[C@@H](C(=O)N[C@@H](CCCNC(=N)N)C(=O)N4CCC[C@H]4C(=O)N[C@@H](CC(=O)O)C(=O)N[C@H](C(=O)NCC(=O)N4CCC[C@H]4C(=O)O)C(C)C)NC(=O)[C@H](Cc4ccc(O)cc4)NC(=O)[C@H](CCSC)NC(=O)[C@H](Cc4ccccc4)NC(=O)[C@H](CCCCN)NC(=O)[C@H](Cc4c[nH]c5ccccc45)NC(=O)CNC1=O)NC(=O)[C@H](CC(=O)O)NC(=O)[C@H](C)NC(=O)[C@H](CC(=O)O)NC(=O)[C@H](CO)NC(=O)[C@H](CC(N)=O)NC3=O)C(=O)N[C@@H](C)C(=O)N[C@@H](CC(N)=O)C(=O)N[C@@H](CCCCN)C(=O)N[C@@H](CCC(=O)O)C(=O)N[C@@H](CCCCN)C(=O)N2 [biotin-PEG12-MK1-3.6.10S] ({Biotin-PEG12}-SCNRLNKKCNSDADCCANKEKCERPIGWKFMYCRPDVGP-OH; disulfide 2-16, 9-22, 15-33; C-terminus assumed), the “binding to RNF43” value [1] is reported as “did not bind”.

In the case of “I: SCNRLNKKCNSDADCCANKEKCERPIGWKFMYCRPDVGP / II: SCNRLNKKCNSDADCCANKEKCERPIGWKFMYCRPDVGP (disulfide I:2-I:16, I:9-I:22, I:15-I:33, II:2-II:16, II:9-II:22, II:15-II:33; linker I:N-II:N via CO(CH2CH2O)5CH2CH2CO) [di-MK1-3.6.10S]”, the “activation of Wnt signaling in reporter assay (in words)” value [2] is reported as “able to induce Wnt signaling activation to a similar extent to the synthetic MK1-3.6.10 dimer”.

“human ZNRF3 (free, in solution) (from UniProt Q9ULT6 56-936) (natural protein)” was tested, and the Kd (biotin-PEG12-MK1-3.6.10S) was 118 nM and the Kd (biotin-PEG2-MK1-3.6.10S) was 149 nM.
